Assay results: patent US8178506B2, “Oligomeric compounds and compositions for use in modulation of small non-coding RNAs” (Regulus Therapeutics Inc., priority 2003, dated 2012)
“Also recorded” adds a separate entry of the source. In the oligonucleotide strings, read from the 5' end, every base follows the letter of its sugar. An asterisk marks phosphorothioate; unmarked linkages are phosphodiester. Other units and linkages are bracketed, terminal groups are in braces. A string of capitals states the bases alone. e = 2'-O-(2-methoxyethyl) (MOE); [5mC] = 5-methylcytosine; d = 2'-deoxy (DNA)

tested on: HepG2 cells; test: Insulin signaling assay in HepG2 cells, marker genes taken together; assay type: cell-based, human; conditions: HepG2, 1 nM insulin, 100 nM

Row | Substance | expression of the IGFBP-1, PEPCK-c and follistatin marker genes
1 | AACCGATTTCAAATGGTGCTAG (anti-miR; chemistry not fully specified) [ISIS 327913, uniform 2′-MOE PS; targets mir-29c] | increased expression of the IGFBP-1, PEPCK-c and follistatin marker genes
2 | GAAAGAGACCGGTTCACTGTGA (anti-miR; chemistry not fully specified) [ISIS 327923, uniform 2′-MOE PS; targets mir-128b] | increased expression of the IGFBP-1, PEPCK-c and follistatin marker genes
3 | CCAAGTTCTGTCATGCACTGA (anti-miR; chemistry not fully specified) [ISIS 327964, uniform 2′-MOE PS; targets mir-152] | increased expression of the IGFBP-1, PEPCK-c and follistatin marker genes
4 | GGGGTATTTGACAAACTGACA (anti-miR; chemistry not fully specified) [ISIS 327961, uniform 2′-MOE PS; targets mir-223] | increased expression of the IGFBP-1, PEPCK-c and follistatin marker genes

same assay, conditions: HepG2, basal (no insulin)

Row | Substance | expression of the IGFBP-1 and follistatin marker genes | IGFBP-1 and PEPCK-c marker genes
5 | CACAAATTCGGATCTACAGGGTA (anti-miR; chemistry not fully specified) [ISIS 327949, uniform 2′-MOE PS; targets mir-10a] | increased expression of the IGFBP-1 and follistatin marker genes | –
6 | ISIS 341802: SEQ ID NO: 1806, targeting mir-191 (antisense AGCUGCUUUUGGGAUUCCGUUG; all 2'-MOE, all phosphorothioate, methylation of C and T or U not given here) | increased expression of the IGFBP-1 and follistatin marker genes | –
7 | ISIS 341803: SEQ ID NO: 760, targeting mir-206 (antisense CCACACACTTCCTTACATTCCA; all 2'-MOE, all phosphorothioate, methylation of C not given here) | – | increases in the IGFBP-1 and PEPCK-c marker genes
8 | GGGGTATTTGACAAACTGACA (anti-miR; chemistry not fully specified) [ISIS 327961, uniform 2′-MOE PS; targets mir-223] | increased expression of the IGFBP-1 and follistatin marker genes | –

same assay, conditions: HepG2, basal (no insulin), 100 nM

Row | Substance | expression of the IGFBP-1, PEPCK-c and follistatin marker genes
9 | AACCGATTTCAAATGGTGCTAG (anti-miR; chemistry not fully specified) [ISIS 327913, uniform 2′-MOE PS; targets mir-29c] | increased expression of the IGFBP-1, PEPCK-c and follistatin marker genes

tested on: mir-15a pri-miRNA; test: mir-15a pri-miRNA expression in T47D cells (real-time RT-PCR); assay type: cell-based, human; conditions: 100 nM
Description: The gapmer oligomeric compounds targeting the mir-15b and mir-15-a-1 mature miRNAs described above were also transfected into T47D cells according to standard procedures. In addition, uniform 2′-MOE and 2′-MOE gapmer oligomeric compounds targeting the mature mir-15a-1 and mir-15b miRNAs were also transfected into T47D cells, for analysis of their effects on mir-15a-1 and mir-15b pri-miRNA levels. The oligomeric compounds ISIS Number 327927 (SEQ ID NO: 345), a uniform 2′-MOE compound and ISIS Number 345391 (SEQ ID NO: 345), a 2′-MOE 5-10-7 gapmer compound, both target mir-15b. The oligomeric compounds ISIS Number 327951 (SEQ ID NO: 369), a uniform 2′-MOE compound, and ISIS Number 345411 (SEQ ID NO: 369), a 2′-MOE 5-10-7 gapmer compound, both target mir-15a-1. Oligomeric compounds ISIS Number 129686 ([…]; SEQ ID NO: 901), and ISIS Number 129691 ([…]; SEQ ID NO:902), both universal scrambled controls, as well as ISIS Number 116847 ([…]; SEQ ID NO: 844) targeting an unrelated gene, PTEN, were used as negative controls. ISIS Numbers 129686, 129691, and 116847 are phosphorothiated 2′-MOE 5-10-5 gapmers, and all cytosines are 5-methylcytosines. T47D cells (seeded in 12-well plates) were treated with these oligomeric compounds, and RNA was isolated from the treated cells by lysing in 1 mL TRIZOL™ (Invitrogen) and total RNA was prepared using the manufacturer's recommended protocols. To assess the effects of these compounds on expression of the mir-15a or mir-15b pri-miRNA molecules, real-time RT-PCR analysis was performed using either the primer/probe set specific for the mir-15a pri-miRNA molecule described above, or a primer probe set specific for the mir-15b pri-miRNA molecule: ISIS 339320 ([…]; SEQ ID NO: 903) was used as the forward primer for the mir-15b pri-miRNA, ISIS 339321 ([…] ACTGT; SEQ ID NO: 904) was used as the reverse primer for the mir-15b pri-miRNA, and ISIS 339322 ([…]; SEQ ID NO: 905) was used as the probe. Total RNA was quantified using RiboGreen™ RNA quantification reagent (Molecular Probes, Inc. Eugene, Oreg.), expression levels observed for each target were normalized to 5.8S rRNA, and values are expressed relative to the untreated control. Inhibition of expression of the mir15a or mir-15b pri-miRNA molecules upon treatment with these oligomeric compounds is was assessed and expressed as a percentage of RNA levels in untreated control cells.
Using the real-time RT-PCR methods described, the expression levels of the mir-15a pri-miRNA were compared in T47D cells treated with the nested series of uniform 2′-MOE oligomeric compounds, targeting and spanning the entire length of the mir-15a pri-miRNA. The region encompassing the mir-15a primary transcript (the complement of nucleotides 31603159 to 31603468 of GenBank Accession number NT—024524.13; AAATAATTATG […]) is incorporated herein as SEQ ID NO: 906. ISIS Number 356215 (SEQ ID NO: 879) targets a region flanking and immediately 5′ to the predicted 5′ Drosha cleavage site in the mir-15a pri-miRNA. ISIS Number 356218 (SEQ ID NO: 881) targets aregion in the loop of the mir-15a pri-miRNA. ISIS 356227 (SEQ ID NO: 883) targets a region flanking and immediately 3′ to the predicted 3′ Drosha cleavage site in the mir-15a pri-miRNA. Additionally, oligomeric compound ISIS 327951 (SEQ ID NO: 369), a uniform 2′-MOE compound targeting the mature mir-15a-1 miRNA, was tested for comparison. Oligomeric compounds ISIS 327901 (SEQ ID NO: 319) targeting the mature mir-143 miRNA; ISIS 129690, ([…]; SEQ ID NO: 907), a phosphorothioate 5-10-5 MOE gapmer used as a universal scrambled control; and ISIS 116847 ([…]; SEQ ID NO: 844), a uniform 5-10-52′-MOE gapmer targeting an unrelated gene, PTEN, were used as negative controls. Using the transfection methods previously described, T47D cells were treated with 100 nM of each of these oligomeric compounds. […]

Row | Substance | levels of the mir-15a pri-miRNA molecule
10 | ISIS 356216: uniform 2′-MOE PS; SEQ ID NO: 880; targets mir-15a pri-miRNA (antisense eG*e[5mC]*eA*e[5mC]*e[5mC]*eT*eT*eT*eT*e[5mC]*eA*eA*eA*eA*eT*e[5mC]*e[5mC]*eA*e[5mC]*eA) [uniform 2′-MOE PS; targets mir-15a pri-miRNA] | stimulate an increase in levels of the mir-15a pri-miRNA molecule
11 | ISIS 356229: uniform 2′-MOE PS; SEQ ID NO: 884; targets mir-15a pri-miRNA (antisense eA*eG*eA*eT*e[5mC]*eA*eG*eA*eT*e[5mC]*e[5mC]*eT*eT*eG*eT*eA*eT*eT*eT*eT) [uniform 2′-MOE PS; targets mir-15a pri-miRNA] | stimulate an increase in levels of the mir-15a pri-miRNA molecule
12 | ISIS 356231: uniform 2′-MOE PS; targets mir-15a pri-miRNA (antisense eT*eT*e[5mC]*eA*eG*eA*eA*eG*eA*eT*e[5mC]*eA*eG*eA*eT*e[5mC]*e[5mC]*eT*eT*eG) | stimulate an increase in levels of the mir-15a pri-miRNA molecule
13 | ISIS 356221: uniform 2′-MOE PS; SEQ ID NO: 882; targets mir-15a pri-miRNA (antisense eA*eG*e[5mC]*eA*e[5mC]*eA*eA*eT*eA*eT*eG*eG*e[5mC]*e[5mC]*eT*eG*e[5mC]*eA*e[5mC]*e[5mC]) [uniform 2′-MOE PS; targets mir-15a pri-miRNA] | stimulate an increase in levels of the mir-15a pri-miRNA molecule
14 | TGTAAACCATGATGTGCTGCTA (anti-miR; chemistry not fully specified) [ISIS 327927, uniform 2′-MOE PS; targets mir-15b] | stimulate an increase in levels of the mir-15a pri-miRNA molecule
15 | ISIS 356215: uniform 2′-MOE PS; SEQ ID NO: 879; region immediately 5′ to 5′ Drosha cleavage site of mir-15a pri-miRNA (antisense eT*eG*e[5mC]*eT*eA*e[5mC]*eT*eT*eT*eA*e[5mC]*eT*e[5mC]*e[5mC]*eA*eA*eG*eG*eT*eT) [uniform 2′-MOE PS; region immediately 5′ to 5′ Drosha cleavage site of mir-15a pri-miRNA] | stimulate an increase in levels of the mir-15a pri-miRNA molecule; also recorded: stimulate the greatest increases in expression of the mir-15a pri-miRNA
16 | ISIS 356218: uniform 2′-MOE PS; SEQ ID NO: 881; loop of the mir-15a pri-miRNA (antisense eT*eG*eG*e[5mC]*e[5mC]*eT*eG*e[5mC]*eA*e[5mC]*e[5mC]*eT*eT*eT*eT*e[5mC]*eA*eA*eA*eA) [uniform 2′-MOE PS; loop of the mir-15a pri-miRNA] | stimulate an increase in levels of the mir-15a pri-miRNA molecule
17 | ISIS 356227: uniform 2′-MOE PS; SEQ ID NO: 883; region immediately 3′ to 3′ Drosha cleavage site of mir-15a pri-miRNA (antisense eT*e[5mC]*e[5mC]*eT*eT*eG*eT*eA*eT*eT*eT*eT*eT*eG*eA*eG*eG*e[5mC]*eA*eG) [uniform 2′-MOE PS; region immediately 3′ to 3′ Drosha cleavage site of mir-15a pri-miRNA] | stimulate an increase in levels of the mir-15a pri-miRNA molecule; also recorded: stimulate the greatest increases in expression of the mir-15a pri-miRNA
18 | ISIS 356232: uniform 2′-MOE PS; targets mir-15a pri-miRNA (antisense eA*eA*eA*eT*eA*eT*eA*eT*eT*eT*eT*e[5mC]*eT*eT*e[5mC]*eA*eG*eA*eA*eG) | stimulate an increase in levels of the mir-15a pri-miRNA molecule

same assay, conditions: real-time RT-PCR

Row | Substance | mir-15a pri-miRNA expression % UTC
19 | 356232 (eA*eA*eA*eT*eA*eT*eA*eT*eT*eT*eT*e[5mC]*eT*eT*e[5mC]*eA*eG*eA*eA*eG) [compound 356232] | 631 % UTC
20 | 116847 (antisense e[5mC]*eT*eG*e[5mC]*eT*dA*dG*d[5mC]*d[5mC]*dT*d[5mC]*dT*dG*dG*dA*eT*eT*eT*eG*eA) [compound 116847] | 132 % UTC
21 | 356231 (eT*eT*e[5mC]*eA*eG*eA*eA*eG*eA*eT*e[5mC]*eA*eG*eA*eT*e[5mC]*e[5mC]*eT*eT*eG) [compound 356231] | 811 % UTC

tested on: preadipocytes / differentiating adipocytes; test: Adipocyte differentiation assay, markers taken together; assay type: cell-based, human; conditions: differentiating adipocytes, % of UTC (Table 55)

Row | Substance | five markers of adipocyte differentiation
22 | TGTAAACCATGATGTGCTGCTA (anti-miR; chemistry not fully specified) [ISIS 327927, uniform 2′-MOE PS; targets mir-15b] | increase in all five markers of adipocyte differentiation
